The source of these data is patent US7186743B2, “Substituted pyrazolyl compounds for the treatment of inflammation” (Pharmacia Corporation, priority 2001, dated 2007).

Structures can show the parent of a compound that is named as a salt. A value given as a limit tells only on which side of the number the result lay.

The target in one test is T1, IKK2 (Homo sapiens, UniProt O14920).
T1 construct: made in house; host or cells: insect cells (baculovirus, pFastBac; SF9)
T1 sequence (O14920 1-756): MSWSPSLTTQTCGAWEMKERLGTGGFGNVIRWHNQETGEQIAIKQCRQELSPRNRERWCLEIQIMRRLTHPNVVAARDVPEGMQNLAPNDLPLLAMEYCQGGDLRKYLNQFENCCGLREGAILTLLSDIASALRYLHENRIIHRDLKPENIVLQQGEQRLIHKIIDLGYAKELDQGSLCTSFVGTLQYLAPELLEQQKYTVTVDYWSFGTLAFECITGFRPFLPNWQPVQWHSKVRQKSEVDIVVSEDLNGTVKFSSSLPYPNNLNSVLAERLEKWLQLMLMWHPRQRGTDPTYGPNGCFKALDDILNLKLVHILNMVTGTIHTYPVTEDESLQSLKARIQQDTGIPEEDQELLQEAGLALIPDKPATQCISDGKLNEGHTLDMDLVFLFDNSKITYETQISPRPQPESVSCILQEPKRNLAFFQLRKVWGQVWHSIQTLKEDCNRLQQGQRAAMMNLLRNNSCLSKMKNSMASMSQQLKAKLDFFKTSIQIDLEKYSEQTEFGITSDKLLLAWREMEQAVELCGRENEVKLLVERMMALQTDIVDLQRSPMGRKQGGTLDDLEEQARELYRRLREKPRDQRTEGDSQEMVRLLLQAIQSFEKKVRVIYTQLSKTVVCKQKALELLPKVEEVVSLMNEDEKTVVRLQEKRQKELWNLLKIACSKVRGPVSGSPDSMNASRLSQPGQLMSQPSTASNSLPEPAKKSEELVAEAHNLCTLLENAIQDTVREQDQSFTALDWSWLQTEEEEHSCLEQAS
Nature of the test: IKKβ Resin Enzyme Assay (IKK2 resin). Format: biochemical. As to conditions: Table 15; read-out: IKK2 Resin IC50. In outline:
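Radiometric test: [γ-33P]ATP incorporation into a biotinylated IκBα peptide, 30 min at 25° C, pH 7.6 Hepes with MgCl2/MnCl2 and 1 μM cold ATP. Reaction is quenched with Dowex resin and the supernatant is counted. Kinase is FLAG-purified homodimeric recombinant human IKK2 from insect cells.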
The term IC50 denotes the concentration that gives 50% inhibition. With `COCC(=O)Nc1ccc(-n2nc(C(N)=O)c3c2-c2cc(NC(=O)c4ccccc4Cl)ccc2CC3)cc1` [Example 374, 8-[(2-chlorobenzoyl)amino]-1-{4-[(methoxyacetyl)amino]phenyl}-4,5-dihydro-1H-benzo[g]indazole-3-carboxamide], the IC50 was not above 1 µM.
`NC(=O)c1nn(-c2cccc(N)c2)c2c1CCc1ccc(NC(=O)c3ccccc3Cl)cc1-2` [Example 375, 1-(3-aminophenyl)-8-[(2-chlorobenzoyl)amino]-4,5-dihydro-1H-benzo[g]indazole-3-carboxamide]: the IC50 is not above 1 µM.
In the case of `CN(C)CCNC(=O)c1ccc(-n2nc(C(N)=O)c3c2-c2cc(NC(=O)c4ccccc4Cl)ccc2CC3)cc1` [Example 380, 8-[(2-chlorobenzoyl)amino]-1-[4-({[2-(dimethylamino)ethyl]amino}carbonyl)phenyl]-4,5-dihydro-1H-benzo[g]indazole-3-carboxamide hydrochloride], the IC50 lay within 1 to 10 µM.

The same test, now with this note: Table 17; read-out: IKK2 Resin IC50.
In the case of `NC(=O)c1nn(-c2ccc(C#CCO)cc2)c2c1CCc1ccc(NC(=O)c3cccnc3Cl)cc1-2` [Example 386, 8-{[(2-chloropyridin-3-yl)carbonyl]amino}-1-[4-(3-hydroxyprop-1-ynyl)phenyl]-4,5-dihydro-1H-benzo[g]indazole-3-carboxamide], the IC50 is not above 1 µM.
Turning to `NC(=O)c1nn(-c2ccc(C#CCCCO)cc2)c2c1CCc1ccc(NC(=O)c3cccnc3Cl)cc1-2` [Example 387, 8-{[(2-chloropyridin-3-yl)carbonyl]amino}-1-[4-(5-hydroxypent-1-ynyl)phenyl]-4,5-dihydro-1H-benzo[g]indazole-3-carboxamide], the IC50 was not above 1 µM.
On the same count and under the same terms, the same measure for `C=Cc1ccc(-n2nc(C(N)=O)c3c2-c2cc(NC(=O)c4cccnc4Cl)ccc2CC3)cc1` [Example 389, 8-{[(2-chloropyridin-3-yl)carbonyl]amino}-1-(4-vinylphenyl)-4,5-dihydro-1H-benzo[g]indazole-3-carboxamide]: not above 1 µM.

The same test, now with this note: Table 18; read-out: IKK2 Resin IC50.
Take `CCS(=O)(=O)c1ccc(-n2nc(C(N)=O)c3c2-c2cc(NC(=O)c4cc(NC(C)=O)ccc4Cl)ccc2CC3)cc1` [Example 392, 8-{[5-(acetylamino)-2-chlorobenzoyl]amino}-1-[4-(ethylsulfonyl)phenyl]-4,5-dihydro-1H-benzo[g]indazole-3-carboxamide]: the IC50 is not above 1 µM.
Same read-out and setting: the figure for `CC(C)S(=O)(=O)c1ccc(-n2nc(C(N)=O)c3c2-c2cc(NC(=O)c4ccccc4Cl)ccc2CC3)cc1` [Example 393, 8-[(2-chlorobenzoyl)amino]-1-[4-(isopropylsulfonyl)phenyl]-4,5-dihydro-1H-benzo[g]indazole-3-carboxamide] is not above 1 µM.
Still for that read-out and setting: the figure for `CCS(=O)(=O)c1ccc(-n2nc(C(N)=O)c3c2-c2cc(NC(=O)c4ccccc4Cl)ccc2CC3)cc1` [Example 395, 8-[(2-chlorobenzoyl)amino]-1-[4-(ethylsulfonyl)phenyl]-4,5-dihydro-1H-benzo[g]indazole-3-carboxamide] is not above 1 µM.

The same test, now with this note: Table for Examples 381-385 (headed TABLE 14); read-out: IKK2 Resin IC50.
On to `NC(=O)c1nn(-c2ccc(N)nc2)c2c1CCc1ccc(NC(=O)c3ccncc3Cl)cc1-2` [Example 381, 1-(6-aminopyridin-3-yl)-8-[(3-chloroisonicotinoyl)amino]-4,5-dihydro-1H-benzo[g]indazole-3-carboxamide], for which the IC50 was not above 1 µM.
As to `NC(=O)c1nn(-c2cccs2)c2c1CCc1ccc(NC(=O)c3ccncc3Cl)cc1-2` [Example 382, 8-[(3-chloroisonicotinoyl)amino]-1-thien-2-yl-4,5-dihydro-1H-benzo[g]indazole-3-carboxamide], the 50% inhibitory concentration (IC50) was not above 1 µM.
`NC(=O)c1nn(-c2ccsc2)c2c1CCc1ccc(NC(=O)c3ccncc3Cl)cc1-2` [Example 383, 8-[(3-chloroisonicotinoyl)amino]-1-thien-3-yl-4,5-dihydro-1H-benzo[g]indazole-3-carboxamide]: the IC50 was not above 1 µM.
